One compound from US9296691B2, “Inhibitors of p75 receptor and their uses” (Horacio Uri Saragovi, priority 2010, dated 2016) can be followed below.

This test addresses T1, p75-Fc (Homo sapiens, UniProt P08138).
T1 construct: purchased R&D
T1 sequence (P08138 29-250 limits assumed): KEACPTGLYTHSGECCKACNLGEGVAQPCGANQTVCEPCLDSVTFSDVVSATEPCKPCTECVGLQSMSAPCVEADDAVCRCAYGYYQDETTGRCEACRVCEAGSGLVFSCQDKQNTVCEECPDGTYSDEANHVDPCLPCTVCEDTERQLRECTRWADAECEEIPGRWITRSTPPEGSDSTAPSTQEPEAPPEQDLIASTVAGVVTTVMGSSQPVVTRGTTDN
Description: Competitive ELISA, p75-Fc binding to immobilized NGF. As for the experimental part: The effect of compounds I-B and LM-24 on the binding between NGF and p75 was tested in competitive ELISA assays, where the antagonists prevent soluble p75 from binding to immobilized NGF. The selectivity of antagonism was evaluated by lack of effect upon NGF-TrkA or lack of effect between NGF and anti-NGF monoclonal antibody (mAb) NGF30 interactions (FIG. 1A).
The compound LM-24 has been reported by others (Massa et al., 2006). Binding studies were carried out with all the compounds using I-B as reference.
Competitive ELISAs were performed as described (Saragovi et al., 1998). The procedure immobilized 50 ng/well NGF, or pro-NGF (Alomone Labs, Israel) onto polystyrene 96-well microtest plates, with washing and blocking with binding buffer (BB; phosphate buffered saline containing 0.5% bovine serum albumin). The following primary reagents in BB were added: recombinant chimeric p75-Fc or recombinant chimeric TrkA-Fc (R&D), or anti-NGF mAb NGF30 (Saragovi et al., 1998); each at 50 nM. The competitors I-B and the other test compounds (or control LM-24) were added at the indicated concentrations, and the plates were incubated for 45 minutes. After washing 3× in BB, HRP-conjugated secondary reagents (Sigma) were added for 30 min (goat anti-human Fc for p75-Fc and for TrkA-Fc; and goat anti-rat Ab for NGF30 mAb), and then wells were washed 3× in BB and 1× in PBS. Peroxidase activity was determined colorimetrically using the substrate TMB One Solution (Promega). The reaction was stopped with 0.5 N H2SO4 and the plates were read at 450 nm (Benchmark Plus, Bio-Rad). Assays were repeated n>4 times, with replicates of 4 wells each assay. […] Wells with no NGF immobilized but with all other reagents added were treated as background (<15% of maximal signals) and standardized to 0% binding.

The structures appear in SMILES notation.

On to `CC(C)NC(=O)N(C(=O)Cn1cnc2c1c(=O)n(C)c(=O)n2C)C(C)C` [I-B, 1,3-Diisopropyl-1-[2-(1,3-dimethyl-2,6-dioxo-1,2,3,6-tetrahydro-purin-7-yl)-acetyl]-urea], for which the remaining activity at 30 µM (0.75 h, binding to immobilized NGF, no cpd = 100%, p75-Fc 50 nM, as described for FIG. 1A (compounds 30 μM), below 100% indicates inhibition) came out at 52%. Moreover, for the setting “competitive ELISA, FIG. 1A, compound at 30 μM”, the “effect on NGF-p75NTR interaction” value is on record as “antagonized NGF-p75NTR interactions selectively”.
